Data: BindingDB's records for doi:10.1016/j.bmcl.2019.126806 (Temple University, 2020)

Target: T1, Lysosomal acid glucosylceramidase (Homo sapiens, UniProt P04062)
T1 sequence (P04062 whole entry): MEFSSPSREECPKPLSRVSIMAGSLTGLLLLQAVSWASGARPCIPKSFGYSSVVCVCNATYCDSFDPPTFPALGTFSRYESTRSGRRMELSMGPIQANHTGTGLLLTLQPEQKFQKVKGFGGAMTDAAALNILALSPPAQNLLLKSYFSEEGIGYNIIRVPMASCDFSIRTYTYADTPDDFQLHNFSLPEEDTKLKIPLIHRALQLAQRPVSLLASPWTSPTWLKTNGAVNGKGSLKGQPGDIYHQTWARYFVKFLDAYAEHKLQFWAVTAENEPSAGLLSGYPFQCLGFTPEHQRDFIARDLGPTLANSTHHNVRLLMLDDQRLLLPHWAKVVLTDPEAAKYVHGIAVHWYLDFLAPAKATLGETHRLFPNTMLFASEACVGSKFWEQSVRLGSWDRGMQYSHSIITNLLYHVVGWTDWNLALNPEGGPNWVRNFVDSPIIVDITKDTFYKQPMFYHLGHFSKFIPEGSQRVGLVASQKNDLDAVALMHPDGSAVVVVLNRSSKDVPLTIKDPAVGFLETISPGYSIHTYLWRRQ
Test: Chaperone activity at GCase in wild-type human fibroblasts assessed as increase in GPN-induced reduction of calcium release using Fluo-8AM based fluorescence assay

Point of comparison: `CC(C)CC(C(=O)c1ccc(OCCN(C)C)cc1)c1ccccc1C1CC1` (centres undefined), EC50 1.1 µM. Against it:
- C/C=C/c1ccccc1C(CCCC)C(=O)c1ccc(OCCN(C)C)cc1 (centres undefined) — the same, 1.1 µM
- CCCCC(C(=O)c1ccc(OCCN(C)C)cc1)c1ccccc1C(C)C (centres undefined) — 1.6-fold lower, 0.7 µM
- CC(C)CC(C(=O)c1ccc(OCCN(C)C)cc1)c1ccccc1C(C)C (centres undefined) — the same, 1.1 µM
